This is an account of results in US20200179361A1, “COMPOSITIONS, METHODS OF USE, AND METHODS OF TREATMENT” (TORREY PINES INSTITUTE FOR MOLECULAR STUDIES, priority 2017, published 2020).

Entries after “also recorded” stand apart in the source; their conditions may differ.

One data set concerns Male Sprague Dawley rats. The conditions noted are these: rat, in vivo.
Data set [1] can be described thus: pharmacokinetics, blood content and blood brain barrier penetration after sc administration. Conditions: rats, 2.0 mg/kg sc.
For data set [2] the following is noted: smoking cessation; cited from earlier work.

Description for Male Sprague Dawley rats: Male Sprague Dawley rats obtained from Charles River (Portage, Mich.) and weighing 200-225 g at their arrival were used in this study. Rats were housed in groups of two in a room with a reverse 12 h light/12 h dark cycle (lights off at 07:30 AM). All experiments were conducted during the dark phase of the cycle. Animals were acclimatized for 7 days with water and chow (Teklad Diets, Madison, Wis.) and handled for 3 times before the experiments were started. Throughout all operant procedures, rats were food restricted (received 20 g of chow daily) with water freely accessible.
5 was dissolved in a vehicle of 0.9% saline and injected subcutaneously at doses of (0.0, 0.3, 1.0 mg/kg). The injection volume was 1 ml/kg. […] (−)-Nicotine hydrogen tartrate salt and alcohol were purchased from Sigma (St. Louis, Mo.). Alcohol was diluted to a concentration of 10% v/v in water and made available orally. Nicotine solution for i.v. injection (30 micrograms/kg/0.1 ml infusion) was obtained by dissolving the salt in 0.9% saline and the pH adjusted to 7.0-7.4 with 3 M sodium hydroxide. Nicotine self-administration dose is reported as free base concentration.
The self-administration boxes consisted of operant conditioning chambers (Med Associates, Inc., St. Albans, Vt.) enclosed in lit, sound attenuating, ventilated environmental cubicles. […]

Regarding `C[C@H]1CNC(=N)N1CCc1cccnc1` [Compound 5, (S)-5-Methyl-1-(2-(pyridin-3-yl)ethyl)imidazolidin-2-imine], in the data set on Male Sprague Dawley rats, the “nicotine self-administration analysed in 30-min intervals” value was “decreased nicotine self-administration during the first 30 min but not during the remaining 90-min period; also recorded: reducing nicotine self-administration only in the first 30 min”. Besides, the “time to maximal concentration in blood and brain” value in data set [1] is reported as not above 10 min.
Turning to `c1cnc2cc3c(cc2n1)[C@@H]1CNC[C@H]3C1` [varenicline], in data set [2], the “cessation rates in most clinical trials” value is 23-40%.
`CC(NC(C)(C)C)C(=O)c1cccc(Cl)c1` (stereo not shown) [bupropion]: the “cessation rates in most clinical trials” value in data set [2] is on record as 15-25%.
